The text below walks through data of article PMC11939470, “The Cyclic Antimicrobial Peptide C-LR18 Has Enhanced Antibacterial Activity, Improved Stability, and a Longer Half-Life Compared to the Original Peptide” (Antibiotics, 2025).

The subject of one data set is rabbit red blood cells. The data set is described as follows: Hemolysis activity determination. It is filed as cell-based. The conditions noted are these: 2% rabbit red blood cells in PBS pH 7.4, 37 °C 1 h, OD 570 nm, repeated three times.
For data set [1], the system named is E. coli ATCC25922. As to the kind of experiment: Bactericidal kinetics assay. Type of data set: cell-based. Particulars: 1 × MIC and 2 × MIC, 1 × 10^6 CFU/mL, 37 °C, dose-dependent, Figure 1f. The protocol: Bactericidal kinetics assay was performed according to the method outlined by Zhang et al.. […] The mixed solutions were incubated in a shaker at 37 °C. A total of 100 μL of the above mixed solution was absorbed every 20 min and diluted with sterile MH liquid medium, and then 50 μL of bacterial solution was aspirated and evenly coated on the solid MH plate. After incubation at 37 °C for 16–18 h, the bacteria colonies on the plate were counted. The bactericidal kinetics curves of LR18 and C-LR18 against E. coli ATCC25922 were plotted. The experiment was repeated three times.

The test system of data set [2] is E. coli ATCC25922. As to the kind of experiment: Membrane permeability assay (propidium iodide uptake, flow cytometry). The conditions noted are these: 1 × MIC (4 μM), 30 min 37 °C, 1 × 10^6 CFU/mL, PBS control 3.25%. Type of data set: cell-based. On the procedure:
The effect of C-LR18 on bacterial membrane permeability was measured using the propidium iodide (PI) uptake assay described in [22]. E. coli ATCC25922 in logarithmic growth phase were adjusted to 1 × 10^6 CFU/mL. C-LR18 was added with the final concentration of 4 μM. The mixtures were incubated for 30 min at 37 °C. […] After eliminating unbound dye by washing twice with PBS, the bacterial cells were detected using a flow cytometer (Ex = 535 nm/Em = 615 nm). The results were analyzed using FlowJo 6.2.1 and GraphPad Prism 5 software.
For orientation: Flow cytometry measures light scatter and fluorescence of single cells or particles in a stream.

Data set [3] deals with genomic DNA of E. coli ATCC25922. As to the kind of experiment: DNA binding assay (gel retardation). The conditions noted are these: 100 ng genomic DNA, 1–512 µM peptide, 37 °C 60 min, 0.8% agarose gel. On the procedure:
The DNA binding test was performed according to gel retardation experiments described previously. Firstly, genomic DNA was extracted from E. coli ATCC25922 using a DNA extraction kit. A total of 100 ng of genomic DNA was mixed with 1–512 µM peptide in a binding buffer (50 µg/mL of BSA, 1 mM of ethylene diamine tetra-acetic acid, 20 mM of KCl, 10 mM of Tris-HCl (pH = 8.0), 5% glycerol, and 1 mM of dithiothreitol) and incubated at 37 °C for 60 min. Subsequently, the samples were examined using 0.8% agarose gel electrophoresis. Observation and photography were performed in the UVP gel imaging system, and the electrophoresis mobility was analyzed.

In data set [4] the test system is E. coli ATCC25922. The data set is described as follows: Stability in serum, read out by MIC assay. Type of data set: in vitro ADME. On the procedure: The MIC test was performed using the method recommended by the National Committee for Clinical Laboratory Standards (NCCLS) Standards and Guidelines, and the method was modified according to the characteristics of antimicrobial peptides. The bacteria were cultured at 37 °C for 16 h, and the microbial suspension was diluted to a final concentration of 5 × 10^5 CFU/mL. Then, 50 µL of bacterial solution was mixed with 50 µL of MHB containing different concentrations peptides (0.5–256 µM) in a 96-well plate. […] The assays were performed three times. Geometric mean MIC represents the average MIC of the peptide against all the tested strains.
The stability of LR18 and C-LR18 in protease, serum, and gastrointestinal conditions was determined using MIC assay, as described previously.
To detect the stability of peptides in serum, the peptides were mixed with various concentrations of fetal bovine serum and mouse serum solutions, and the final concentrations of serum were 6.25%, 12.5%, 25%, and 50%. The MIC of peptides against E. coli ATCC25922 in the presence of different concentrations of serum was determined. Subsequent steps were the same as for the MIC assay. The assays were performed three times.

Data set [5] concerns E. coli Y1. As to the kind of experiment: Therapeutic experiment, survival of E. coli-infected mice. It is filed as in vivo, KM mice. Particulars: within 72 h, 10 mice per group. The protocol: The mice (female, 18–21 g) were randomly divided into 6 groups, with PBS dilution as the control group. A total of 1–5 groups were injected intraperitoneally with 0.5 mL of E. coli solution containing […] CFU/mL, respectively. After inoculation, the mice were observed continuously for 5 days, and the mortality rate was recorded. The minimum dose (LD 100) at which all mice die within 5 days was used as the optimal dose for the bacterial attack in this experiment.
In order to further evaluate the therapeutic potential of antimicrobial peptide C-LR18, a mouse model infected with E. coli was constructed in this study. The Km mice (female, 18–21 g) were maintained at constant room temperature [(25 ± 2) °C] with free access to food and water for 48 h. […] A total of 0.5 mL of E. coli Y1 suspension (10^9 CFU/m L) was intraperitoneally injected into each group of mice. One hour after challenge, different doses of C-LR18 (2.5 mg/kg, 5 mg/kg, and 7.5 mg/kg) and polymyxin B (5 mg/kg) were intraperitoneally injected into mice. The group injected with the same dose of physiological water was the control group.

Data set [6] concerns E. coli Y1. The data set is described as follows: Bacterial colony number in mouse abdominal cavity. It is filed as in vivo. Particulars: 24 h after treatment, three mice, control group 1 × 10^9 CFU/mL. The protocol: One hour after the mice were intraperitoneally injected with 0.5 mL of E. coli Y1 suspension (10^9 CFU/mL), different doses of C-LR18 (2.5 mg/kg, 5 mg/kg, and 7.5 mg/kg) were injected into the mice through the tail vein, respectively. After 24 h, 2 mL sterile saline was injected into the abdominal cavity of the mice, and the mice were killed via cervical dislocation. The peritoneal cavity of mice was opened, the peritoneal fluid was absorbed, and the peritoneal fluid was diluted with sterilized MH medium in a double ratio. After coating the plate, the peritoneal fluid was cultured at 37 °C for 16–20 h, and the colony count was performed. Three mice were taken from each group.

Data set [7] deals with E. coli Y1. The data set is described as follows: Bacterial load in liver and spleen of mice. It is filed as in vivo. Particulars: 7.5 mg/kg tail vein 1 h after ip E. coli Y1, one mouse every 24 h. On the procedure: One hour after the mice were intraperitoneally injected with 0.5 mL of E. coli Y1 suspension (10^9 CFU/mL), C-LR18 was injected into the mice at a dose of 7.5 mg/kg through the tail vein. The normal saline group was used as negative control, and the polymyxin B group (1 mg/kg) was used as positive control. After that, one mouse was taken every 24 h, sacrificed via cervical dislocation, and the liver and spleen were removed, weighed, and added to PBS buffer for grinding at 3000 r/min for 2 min. The abrasive solution was diluted with sterile PBS (1:10,000), and 0.1 mL diluent was evenly coated in solid MH medium and cultured at 37 °C overnight. Colony counting was performed on the samples, and the bacterial colonization amount in liver and spleen was calculated.

Where a SMILES comes first, the peptide text is derived from it. Bridges are numbered along the chain shown (N, C = ends).

Experimental for rabbit red blood cells: Briefly, the collected rabbit red blood cells [purchased from Oumarsi (Shanghai, China) Biotechnology Co., Ltd.] were washed three times with PBS (pH 7.4) and diluted to 2% (v/v). A total of 100 µL of rabbit red blood cells suspension were mixed with 100 µL of PBS (pH 7.4) containing different concentrations of peptides (1–256 µM) in a 96-well plate. The positive control was a mixture of 100 µL of red blood cell suspension and 100 µL of 0.2% TritonX-100 solution, and the negative control was a mixture of 100 µL of red blood cell suspension and 100 µL of PBS solution. The mixtures were incubated at 37 °C for 1 h, then centrifuged at 1000× g for 10 min. The OD value at 570 nm of the supernatant was measured using a microplate reader (TECAN GENios F129004, Tecan, Salzburg, Austria). The hemolytic index was calculated according to the following formula:Hemolytic index % = (OD peptide − ODPBS)/(ODT ritonX-100 − ODPBS) × 100%(2)
The concentration of the antimicrobial peptide causing 10% erythrocyte hemolysis was defined as the minimum hemolytic concentration of the antimicrobial peptide on rabbit red blood cells. The experiment was repeated three times.

On to `CC(C)C[C@@H]1NC(=O)[C@H](CCCNC(=N)N)NC(=O)[C@H](CCCNC(=N)N)NC(=O)[C@H](CC(C)C)NC(=O)[C@H](CC(C)C)NC(=O)[C@H](CCCNC(=N)N)NC(=O)[C@H](CC(C)C)NC(=O)[C@@H]2CCCN2C(=O)[C@H](CCCNC(=N)N)NC(=O)[C@H](CCCNC(=N)N)NC(=O)[C@@H]2CCCN2C(=O)[C@H](CC(C)C)NC(=O)[C@H](CCCNC(=N)N)NC(=O)[C@H](CC(C)C)NC(=O)[C@H](CC(C)C)NC(=O)[C@H](CCCNC(=N)N)NC(=O)[C@H](CCCNC(=N)N)NC(=O)[C@H](CC(C)C)NC(=O)[C@@H](N)CSSC[C@@H](C(=O)O)NC1=O` [C-LR18] (H-CLRRLLRLPRRPLRLLRRLC-OH; disulfide 1-20; N-terminus and C-terminus assumed), for which the “MHC10 (lowest concentration inducing 10% hemolysis)” value with rabbit red blood cells is 128 µM. Also, in the data set on E. coli ATCC25922 [1], the “time to complete killing of E. coli ATCC25922” value is at most 100 min. In addition, in the data set on E. coli ATCC25922 [2], the “PI fluorescence of treated cells (PI-A+)” value came out at 60.6%. Moreover, the “concentration exhibiting DNA-binding ability” value in data set [3] came out at 64 µM. Further, the “increase of MIC” value in the data set on E. coli ATCC25922 [4] (50% serum or artificial gut solution for 30 min (abstract)) stood at 4 fold; with E. coli ATCC25922 [4] (serum concentration 50%) it was 4 times. Moreover, the “survival rate of mice” value was determined as 20% in the data set on E. coli Y1 [5] (2.5 mg/kg ip 1 h after ip 0.5 mL E. coli Y1 10^9 CFU/mL), 40% in the data set with E. coli Y1 [5] (5 mg/kg ip 1 h after ip 0.5 mL E. coli Y1 10^9 CFU/mL) and 60% in the data set on E. coli Y1 [5] (7.5 mg/kg ip 1 h after ip 0.5 mL E. coli Y1 10^9 CFU/mL). Further, the “number of colonies in mouse abdominal cavity” value is listed as 10^7 CFU/mL in the data set on E. coli Y1 [6] (2.5 mg/kg), 10^6 CFU/mL with E. coli Y1 [6] (5.0 mg/kg) and 10^4 CFU/mL in the data set with E. coli Y1 [6] (7.5 mg/kg). The “bacterial colonization in liver and spleen” value with E. coli Y1 [7] is reported as “significantly less than that in the negative control group”.
